Data: patent US11058678B2 (Enanta Pharmaceuticals, Inc., priority 2018, dated 2021)

Test system: HBV (2.2.15 cells)
Experiment: Antiviral activity in 2.2.15 cells: reduction of viral product accumulation (qPCR of lysates, HBsAg or HBeAg ELISA)
Format: cell-based, hepatitis B virus (HBV)
Settings: Hepatitis B virus, 120 h, day 5 post treatment, 50% reduction of viral product accumulation in lysates or supernatants vs no drug controls, readout (qPCR, HBsAg, HBeAg) not specified
Experimental: 2.2.15 cells are passaged upon attaining confluency in DMEM/F12 media in the presence of 10% FBS, Penn/Strep, and 250 ug/mL G418. Novel compounds are 5 fold serially diluted in DMSO and added to 96 well plates containing 35,000 cells/well at a 1:200 dilution so that the final concentration of DMSO is 0.5%. On day 5, post treatment cell lysates and supernatants are harvested for analysis.
Cells are lysed using Agilent Sidestep Lysis buffer, diluted 1:100 and quantified via quantitative real time PCR. Commercially available ELISA kits are used to quantitate the viral proteins HBsAg (Alpco) or HBeAg (US Biological) by following the manufacturer's recommended protocol after diluting samples to match the linear range of their respective assays. Irrespective of readout, compound concentrations that reduce viral product accumulation in the cell lysates or supernatants by 50% relative to no drug controls (EC50) are reported; EC50 ranges are as follows: A<0.1 μM; B 0.1-1 μM; C>1 μM.

Compound | EC50 [nM]
CC(C)(C)[C@@H]1Cc2ccc(N3CC(F)(F)C3)cc2-c2cc(=O)c(C(=O)O)cn21 [Example 154, (S)-6-(tert-butyl)-10-(3,3-difluoroazetidin-1-yl)-2-oxo-6,7-dihydro-2H-pyrido[2,1-a]isoquinoline-3-carboxylic Acid] | > 1000
COCCCOc1cc2c(cc1-c1nnc(C(F)(F)F)o1)-c1cc(=O)c(C(=O)O)cn1[C@H](C(C)(C)C)C2 [Example 53, (S)-6-(tert-butyl)-9-(3-methoxypropoxy)-2-oxo-10-(5-(trifluoromethyl)-1,3,4-oxadiazol-2-yl)-6,7-dihydro-2H-pyrido[2,1-a]isoquinoline-3-carboxylic Acid] | < 100
Cn1ccc(-c2cc3c(c4c2OCC4)C[C@@H](C(C)(C)C)n2cc(C(=O)O)c(=O)cc2-3)n1 [Example 70, (S)-5-(tert-butyl)-12-(1-methyl-1H-pyrazol-3-yl)-9-oxo-2,3,4,9-tetrahydro-5H-furo[3,2-f]pyrido[2,1-a]isoquinoline-8-carboxylic Acid] | < 100
CC(C)(C)[C@@H]1Cc2c(cc(-c3ccc(Cl)cc3)c3c2CCO3)-c2cc(=O)c(C(=O)O)cn21 [Example 84, (S)-5-(tert-butyl)-12-(4-chlorophenyl)-9-oxo-2,3,4,9-tetrahydro-5H-furo[3,2-f]pyrido[2,1-a]isoquinoline-8-carboxylic Acid] | > 1000
CC(C)[C@@H]1Cc2c(cc(-c3ccccc3Cl)c3c2CCO3)-c2cc(=O)c(C(=O)O)cn21 [Example 113] | > 1000
COCCCOc1cc2c(cc1-n1cccn1)-c1cc(=O)c(C(=O)O)cn1[C@@H](C(C)(C)C)C2 [Example 51, (R)-6-(tert-butyl)-9-(3-methoxypropoxy)-2-oxo-10-(1H-pyrazol-1-yl)-6,7-dihydro-2H-pyrido[2,1-a]isoquinoline-3-carboxylic Acid] | < 100
COCCCOc1cc2c(cc1-c1nnco1)-c1cc(=O)c(C(=O)O)cn1[C@H](C(C)(C)C)C2 [Example 36, (S)-6-(tert-butyl)-9-(3-methoxypropoxy)-10-(1,3,4-oxadiazol-2-yl)-2-oxo-6,7-dihydro-2H-pyrido[2,1-a]isoquinoline-3-carboxylic Acid] | < 100
Cn1cc(-c2cc3c(c4c2OCC4)C[C@@H](C(C)(C)C)n2cc(C(=O)O)c(=O)cc2-3)cn1 [Example 69, (S)-5-(tert-butyl)-12-(1-methyl-1H-pyrazol-4-yl)-9-oxo-2,3,4,9-tetrahydro-5H-furo[3,2-f]pyrido[2,1-a]isoquinoline-8-carboxylic Acid] | < 100
CC(C)(C)[C@@H]1Cc2c(cc(-c3ccncc3)c3c2CCO3)-c2cc(=O)c(C(=O)O)cn21 [Example 74, (S)-5-(tert-butyl)-9-oxo-12-(pyridin-4-yl)-2,3,4,9-tetrahydro-5H-furo[3,2-f]pyrido[2,1-a]isoquinoline-8-carboxylic Acid] | < 100
CC(C)(C)[C@@H]1Cc2c(cc(-c3cccc(C(F)(F)F)c3)c3c2CCO3)-c2cc(=O)c(C(=O)O)cn21 [Example 81, (S)-5-(tert-butyl)-9-oxo-12-(3-(trifluoromethyl)phenyl)-2,3,4,9-tetrahydro-5H-furo[3,2-f]pyrido[2,1-a]isoquinoline-8-carboxylic Acid] | > 1000
CC(C)[C@@H]1Cc2c(cc(-c3cccc(Cl)c3)c3c2CCO3)-c2cc(=O)c(C(=O)O)cn21 [Example 112, (S)-12-(3-chlorophenyl)-5-isopropyl-9-oxo-2,3,4,9-tetrahydro-5H-furo[3,2-f]pyrido[2,1-a]isoquinoline-8-carboxylic Acid] | > 1000
COCCCOc1cc2c(cc1-c1cccc(Cl)c1)-c1cc(=O)c(C(=O)O)cn1[C@H]1[C@@H]2COC1(C)C [Example 138, (3aS,12bR)-10-(3-chlorophenyl)-11-(3-methoxypropoxy)-3,3-dimethyl-7-oxo-3,3a,7,12b-tetrahydro-1H-furo[3,4-c]pyrido[2,1-a]isoquinoline-6-carboxylic Acid] | < 100
COCCCOc1cc2c(cc1N1CCC1)-c1cc(=O)c(C(=O)O)cn1[C@H](C(C)(C)C)C2 [Example 55, (S)-10-(azetidin-1-yl)-6-(tert-butyl)-9-(3-methoxypropoxy)-2-oxo-6,7-dihydro-2H-pyrido[2,1-a]isoquinoline-3-carboxylic Acid] | < 100
CC(C)[C@@H]1Cc2c(cc(-c3ccco3)c3c2CCO3)-c2cc(=O)c(C(=O)O)cn21 [Example 101, (S)-12-(furan-2-yl)-5-isopropyl-9-oxo-2,3,4,9-tetrahydro-5H-furo[3,2-f]pyrido[2,1-a]isoquinoline-8-carboxylic Acid] | < 100
CC(C)(C)[C@@H]1Cc2c(cc(N3CC(F)(F)C3)c3c2C[C@H](C(F)F)O3)-c2cc(=O)c(C(=O)O)cn21 [Example 155, (2R,5S)-5-(tert-butyl)-12-(3,3-difluoroazetidin-1-yl)-2-(difluoromethyl)-9-oxo-2,3,4,9-tetrahydro-5H-furo[3,2-f]pyrido[2,1-a]isoquinoline-8-carboxylic Acid] | > 1000
CC(C)[C@@H]1Cc2c(cc(N3CCC3)c3c2CCO3)-c2cc(=O)c(C(=O)O)cn21 [Example 117, (S)-12-(azetidin-1-yl)-5-isopropyl-9-oxo-2,3,4,9-tetrahydro-5H-furo[3,2-f]pyrido[2,1-a]isoquinoline-8-carboxylic Acid] | < 100
COCCCOc1cc2c(cc1-n1ccc3ccccc31)-c1cc(=O)c(C(=O)O)cn1[C@H](C(C)(C)C)C2 [Example 52, (S)-6-(tert-butyl)-10-(1H-indol-1-yl)-9-(3-methoxypropoxy)-2-oxo-6,7-dihydro-2H-pyrido[2,1-a]isoquinoline-3-carboxylic Acid] | < 100
Cn1nccc1-c1cc2c(c3c1OC(C)(C)C3)C[C@@H](C(C)(C)C)n1cc(C(=O)O)c(=O)cc1-2 [Example 150, (S)-5-(tert-butyl)-2,2-dimethyl-12-(1-methyl-1H-pyrazol-5-yl)-9-oxo-2,3,4,9-tetrahydro-5H-furo[3,2-f]pyrido[2,1-a]isoquinoline-8-carboxylic Acid] | > 1000
CC(C)[C@@H]1Cc2c(cc(-c3ccc(C(F)(F)F)cc3)c3c2CCO3)-c2cc(=O)c(C(=O)O)cn21 [Example 94, (S)-5-isopropyl-9-oxo-12-(4-(trifluoromethyl)phenyl)-2,3,4,9-tetrahydro-5H-furo[3,2-f]pyrido[2,1-a]isoquinoline-8-carboxylic Acid] | > 1000
CC(C)[C@@H]1Cc2c(cc(-c3cnn(C)c3)c3c2CCO3)-c2cc(=O)c(C(=O)O)cn21 [Example 97, (S)-5-isopropyl-12-(1-methyl-1H-pyrazol-4-yl)-9-oxo-2,3,4,9-tetrahydro-5H-furo[3,2-f]pyrido[2,1-a]isoquinoline-8-carboxylic Acid] | < 100
CC(C)[C@@H]1Cc2c(cc(-c3ccncc3)c3c2CCO3)-c2cc(=O)c(C(=O)O)cn21 [Example 104, (S)-5-isopropyl-9-oxo-12-(pyridin-4-yl)-2,3,4,9-tetrahydro-5H-furo[3,2-f]pyrido[2,1-a]isoquinoline-8-carboxylic Acid] | < 100
COCCCOc1cc2c(cc1-c1cnco1)-c1cc(=O)c(C(=O)O)cn1[C@H]1[C@@H]2COC1(C)C [Example 121, (3aS,12bR)-11-(3-methoxypropoxy)-3,3-dimethyl-10-(oxazol-5-yl)-7-oxo-3,3a,7,12b-tetrahydro-1H-furo[3,4-c]pyrido[2,1-a]isoquinoline-6-carboxylic Acid] | < 100
CC1(C)Cc2c3c(cc(-c4cccs4)c2O1)-c1cc(=O)c(C(=O)O)cn1[C@H](C(C)(C)C)C3 [Example 152, (S)-5-(tert-butyl)-2,2-dimethyl-9-oxo-12-(thiophen-2-yl)-2,3,4,9-tetrahydro-5H-furo[3,2-f]pyrido[2,1-a]isoquinoline-8-carboxylic Acid] | > 1000
COCCCOc1cc2c(cc1-c1cnc(OC)nc1)-c1cc(=O)c(C(=O)O)cn1[C@H](C(C)(C)C)C2 [Example 44, (S)-6-(tert-butyl)-9-(3-methoxypropoxy)-10-(2-methoxypyrimidin-5-yl)-2-oxo-6,7-dihydro-2H-pyrido[2,1-a]isoquinoline-3-carboxylic Acid] | < 100
COCCCOc1cc2c(cc1-c1cnsc1)-c1cc(=O)c(C(=O)O)cn1[C@H]1[C@@H]2COC1(C)C [Example 127, (3aS,12bR)-10-(isothiazol-4-yl)-11-(3-methoxypropoxy)-3,3-dimethyl-7-oxo-3,3a,7,12b-tetrahydro-1H-furo[3,4-c]pyrido[2,1-a]isoquinoline-6-carboxylic Acid] | < 100
Cn1cc(-c2cc3c(c4c2OC(C)(C)C4)C[C@@H](C(C)(C)C)n2cc(C(=O)O)c(=O)cc2-3)cn1 [Example 151, (S)-5-(tert-butyl)-2,2-dimethyl-12-(1-methyl-1H-pyrazol-4-yl)-9-oxo-2,3,4,9-tetrahydro-5H-furo[3,2-f]pyrido[2,1-a]isoquinoline-8-carboxylic Acid] | > 1000
CC1(C)Cc2c3c(cc(-c4cn[nH]c4)c2O1)-c1cc(=O)c(C(=O)O)cn1[C@H](C(C)(C)C)C3 [Example 147, (S)-5-(tert-butyl)-2,2-dimethyl-9-oxo-12-(1H-pyrazol-4-yl)-2,3,4,9-tetrahydro-5H-furo[3,2-f]pyrido[2,1-a]isoquinoline-8-carboxylic Acid] | > 1000
COCCCOc1cc2c(cc1-c1ccc3c(c1)OCCO3)-c1cc(=O)c(C(=O)O)cn1[C@H](C(C)(C)C)C2 [Example 31, (S)-6-(tert-butyl)-10-(2,3-dihydrobenzo[b][1,4]dioxin-6-yl)-9-(3-methoxypropoxy)-2-oxo-6,7-dihydro-2H-pyrido[2,1-a]isoquinoline-3-carboxylic Acid] | < 100
